Where two headings read alike, the source gives them in different places.
Legend:
Ramos = test: AlamarBlue viability assay; format: cell-based, human; conditions: Homo sapiens, Ramos, 24 h, read-out: IC50 (Ramos)
CDK5 = conditions: read-out: Enzymatic IC50 values, CDK5, cited from earlier work
CDK9 = conditions: read-out: Enzymatic IC50 values, CDK9, cited from earlier work
Ramos cells [1] = test: BrdU cell proliferation assay; format: cell-based, human; conditions: 24 h, non-lethal doses
Procedure: The Bromodeoxyuridine (BrdU) Cell Proliferation kit from Millipore (#QIA58-1000TEST) was used to measure proliferation of cells. The manufacturer protocol has been optimized as described in the following. 1 × 10^4 cells per well were seeded in a 96-well plate. The cells were pre-incubated with the compounds of interest for 1 h. Following this, the BrdU solution was added and the cells were incubated for a total of 24 h. BrdU is an analog of the nucleoside thymidine and is incorporated into the DNA of dividing cells during replication. Culture medium was removed and cells were fixed and denatured with Fixative/Denaturing solution for 30 min at room temperature. Since suspension cells were used, they had to be centrifuged at 1200 rpm for 5 min after each following step. After, the anti-BrdU-antibody was incubated for 1 h at RT. Cells were washed three times with washing buffer. The secondary antibody, which is coupled to HRP (horseradish peroxidase) was incubated for 30 min at RT. Again, cells were washed three times with washing buffer.
Then, the substrate solution was added, that contained TMB (3,3’,5,5’-Tetramethylbenzidine), which is oxidized by HRP. Oxidation of TMB causes a color change from colorless to blue. The intensity of color change is correlated with the number of bound peroxidases, which depends on the quantity of primary antibodies and therefore on the content of the incorporated BrdU. If the cells are not proliferating, no BrdU is incorporated, resulting in a weak signal.
After 15 min incubation time the stopping reagent was added, causing a pH change and resulting in a color change from blue to yellow. The colored reaction product was quantified at 450 nm using a spectrophotometer. For all measurements, three technical replicates were made. The control was set to 100% proliferation, and the treated cells were normalized to the control. The results were visualized using GraphPad Prism 7.

CDK1 = conditions: read-out: Enzymatic IC50 values, CDK1, cited from earlier work
CDK2 = conditions: read-out: Enzymatic IC50 values, CDK2, cited from earlier work
CDK4 = system: CDK4; parameters: method as in Selleckchem.com; conditions: ref Selleckchem.com; read-out: Enzymatic IC50 values, CDK4; cited from earlier work
CDK6 = system: CDK6; parameters: method as in Selleckchem.com; conditions: ref Selleckchem.com; read-out: Enzymatic IC50 values, CDK6; cited from earlier work
[2] = system: RNA polymerase II phosphorylation at Ser2; test: immunoblotting of p-Ser2 RNA polymerase II in Ramos cells; format: cell-based, human; conditions: 0.1 and 1 µM (R547 1 µM), 4-24 h
Procedure: (§1) Cells were seeded at a density of 2 × 10^6 cells, treated as specified and harvested by centrifugation at 3000 rpm for 5 min, followed by freezing in liquid nitrogen. The cell pellets were thawed on ice and quick-frozen and defrozen in liquid nitrogen for three times, then lysed on ice in lysis buffer (20 mM Tris-HCl, 150 mM NaCl, 1% v/v Triton X-100, 0.5 mM EDTA, 10 mM NaF, 2.5 mM Na4P2O7, protease inhibitor (Sigma, #P2714)) for 30 min, accompanied by vortexing. Subsequently, centrifugation 13,300 rpm for 15 min purified cell lysates from cell debris. The supernatant was transferred to a new tube and the protein concentration was determined by Bradford assay. The samples were diluted with sample buffer. SDS-Page and Western Blot were conducted in accordance with standard workflows. […] The antibody baths were stored at 4 °C and re-used.
(§2) The density of the individual protein band was determined using Image Studio^TM Lite Version 5.2. The density of each protein was divided by the average of all bands of this protein. The ratios of the protein of interest were normalized to the ratio of the respective loading control. To determine the fold change, each normalized ratio was divided by the normalized band of the control line (untreated cells). Fold change is 1 for the control line, n ≥ 2. The results are shown as mean ± standard deviation and were visualized with GraphPad Prism 7.

[3] = system: retinoblastoma (RB) protein phosphorylation; test: immunoblotting of phospho-RB in Ramos cells; format: cell-based, human; conditions: up to 24 h
Procedure: as §1, §2

cyclin B1 expression = test: immunoblotting of cyclin B1 in Ramos cells; format: cell-based, human; conditions: 24 h
Procedure: as §1, §2

Ramos cells [4] = test: cell cycle analysis (Nicoletti assay); format: cell-based, human; conditions: 24 h, sublethal dose, with QVD
Procedure: DNA content during cell cycle and hypodiploid apoptotic nuclei were measured by the method of Nicoletti et al.. […] Hypodiploid nuclei were measured in logarithmic mode for apoptosis determination. Flow-cytometry analysis was performed on an LSRFortessa^TM (Becton, Dickinson, Heidelberg, Germany) and data analysis was performed using FlowJo_V10 (BD Biosciences).

SMILES	IC50 (Ramos; cytotoxicity)	IC50 (CDK9; ref Selleckchem.com)	proliferation (BrdU incorporation) (Ramos cells [1])	IC50 (CDK4)	IC50 (CDK1; ref Selleckchem.com)	IC50 (CDK2; ref Selleckchem.com)	also measured
CC(C)(C)c1cnc(CSc2cnc(NC(=O)C3CCNCC3)s2)o1 [SNS-032]	710 nM	[…]					IC50 (CDK5; ref Selleckchem.com): […]
CCc1cnn2c(NCc3ccc[n+]([O-])c3)cc(N3CCCC[C@H]3CCO)nc12 [dinaciclib]			substantial decrease in proliferation				
COc1ccnc2[nH]cc(-c3ccnc(N)n3)c12 [meriolin 3]	130 nM		substantial decrease in proliferation				IC50 (CDK1; ref [10, 12] of the supplement): 170 nM; IC50 (CDK2; ref [10, 12] of the supplement): 11 nM; IC50 (CDK5; ref [10, 12] of the supplement): 170 nM; IC50 (CDK9; ref [10, 12] of the supplement): 6 nM
CN1CC[C@H](c2c(O)cc(O)c3c(=O)cc(-c4ccccc4Cl)oc23)[C@H](O)C1 [flavopiridol]	140 nM	[…]		[…]	[…]	[…]	IC50 (CDK6): […]
COc1ccc(F)c(F)c1C(=O)c1cnc(NC2CCN(S(C)(=O)=O)CC2)nc1N [R547, [4-amino-2-(1-methanesulfonylpi peridin-4-ylamino)pyrimidin-5-yl](2,3-difluoro-6-methoxyphenyl) methanone, reference compound]			[…]	[…]	2 nM		IC50 (Ramos): 1800 nM; phosphorylation of RNA polymerase II at Ser2 [2]: less pronounced; phosphorylation of RB at p-Thr821 ([3]; 0.1 and 1 µM (R547 1 µM)): loss of phosphorylation; phosphorylation of RB at p-Ser249 and p-Thr252 ([3]; 0.1 or 1 µM (R547 1 µM)): completely abrogated the phosphorylation of RB within 4 h; expression of cyclin B1 (cyclin B1 expression): rather increased the expression of cyclin B1; effect on cell cycle phases (Ramos cells [4]): pronounced G2 arrest
CN1C/C=C/CCOc2cccc(c2)-c2ccnc(n2)Nc2cccc(c2)C1 [zotiraciclib]	170 nM	3 nM			9 nM	5 nM	

— paper PMC11167047 (Cell Death Discovery, 2024)
